Test results published in ChEMBL document CHEMBL1201862, “PubChem BioAssay data set” (2004).
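How tested: cells in 96-well plates exposed to compound for 48 hours at five concentrations. Abbreviation: GI50, concentration required for 50% inhibition of growth.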 Activity calls are given as the source filed them. No stated cut-off is given here; in the data, active = GI50 up to about 1.1 µM and inactive = higher.

Legend:
Experiment in all cases: NCI tumour cell line growth inhibition, 48 h
786-0 = test system: 786-0
A498 = test system: A498
A549 = test system: A549
ACHN = test system: ACHN
BT-549 = test system: BT-549
CAKI-1 = test system: CAKI-1
CCRF-CEM = test system: CCRF-CEM
COLO 205 = test system: COLO 205
DU-145 = test system: DU-145
EKVX = test system: EKVX
HCC 2998 = test system: HCC 2998
HCT-116 = test system: HCT-116
HCT-15 = test system: HCT-15
HL-60 = test system: HL-60
HOP-62 = test system: HOP-62
HT-29 = test system: HT-29
Hs-578T = test system: Hs-578T
IGROV-1 = test system: IGROV-1
K562 = test system: K562
KM12 = test system: KM12
LOX IMVI = test system: LOX IMVI
M14 = test system: M14
MCF7 = test system: MCF7
MDA-MB-231 = test system: MDA-MB-231
MDA-MB-435 = test system: MDA-MB-435
MDA-N = test system: MDA-N
MOLT-4 = test system: MOLT-4
Malme-3M = test system: Malme-3M
NCI-H226 = test system: NCI-H226
NCI-H23 = test system: NCI-H23
NCI-H460 = test system: NCI-H460
NCI-H522 = test system: NCI-H522
NCI/ADR-RES = test system: NCI/ADR-RES
OVCAR-3 = test system: OVCAR-3
OVCAR-4 = test system: OVCAR-4
OVCAR-5 = test system: OVCAR-5
OVCAR-8 = test system: OVCAR-8
PC-3 = test system: PC-3
RPMI-8226 = test system: RPMI-8226
RXF 393 = test system: RXF 393
SF-268 = test system: SF-268
SF-295 = test system: SF-295
SF-539 = test system: SF-539
SK-MEL-28 = test system: SK-MEL-28
SK-MEL-2 = test system: SK-MEL-2
SK-MEL-5 = test system: SK-MEL-5
SK-OV-3 = test system: SK-OV-3
SN12C = test system: SN12C
SNB-19 = test system: SNB-19
SNB-75 = test system: SNB-75
SW-620 = test system: SW-620
T47D = test system: T47D
TK-10 = test system: TK-10
U-251 = test system: U-251
UACC-257 = test system: UACC-257
UACC-62 = test system: UACC-62
UO-31 = test system: UO-31

Compound: COc1cc(O)c2c(=O)c3cccc(C)c3[nH]c2c1
- GI50 (786-0): > 10 µM (inactive)
- GI50 (A498): 9.33 µM (inactive)
- GI50 (A549): > 10 µM (inactive)
- GI50 (ACHN): 7.41 µM (inactive)
- GI50 (BT-549): > 10 µM (inactive)
- GI50 (CAKI-1): > 10 µM (inactive)
- GI50 (CCRF-CEM): 7.6 µM (inactive)
- GI50 (COLO 205): > 10 µM (inactive)
- GI50 (DU-145): > 10 µM (inactive)
- GI50 (EKVX): > 10 µM (inactive)
- GI50 (HCC 2998): > 10 µM (inactive)
- GI50 (HCT-116): > 10 µM (inactive)
- GI50 (HCT-15): > 10 µM
- GI50 (HL-60): > 10 µM (inactive)
- GI50 (HOP-62): > 10 µM (inactive)
- GI50 (HT-29): > 10 µM (inactive)
- GI50 (Hs-578T): > 10 µM (inactive)
- GI50 (IGROV-1): > 10 µM (inactive)
- GI50 (K562): > 10 µM (inactive)
- GI50 (KM12): 5.93 µM (inactive)
- GI50 (LOX IMVI): 8.75 µM (inactive)
- GI50 (M14): > 10 µM (inactive)
- GI50 (MCF7): > 10 µM (inactive)
- GI50 (MDA-MB-231): > 10 µM (inactive)
- GI50 (MDA-MB-435): > 10 µM (inactive)
- GI50 (MDA-N): > 10 µM (inactive)
- GI50 (MOLT-4): 3.99 µM (inactive)
- GI50 (Malme-3M): > 10 µM (inactive)
- GI50 (NCI-H226): > 10 µM (inactive)
- GI50 (NCI-H23): > 10 µM (inactive)
- GI50 (NCI-H460): > 10 µM (inactive)
- GI50 (NCI-H522): > 10 µM (inactive)
- GI50 (NCI/ADR-RES): > 10 µM (inactive)
- GI50 (OVCAR-3): 9.31 µM (inactive)
- GI50 (OVCAR-4): 6.4 µM (inactive)
- GI50 (OVCAR-5): > 10 µM (inactive)
- GI50 (OVCAR-8): > 10 µM (inactive)
- GI50 (PC-3): > 10 µM (inactive)
- GI50 (RPMI-8226): > 10 µM (inactive)
- GI50 (RXF 393): > 10 µM (inactive)
- GI50 (SF-268): > 10 µM (inactive)
- GI50 (SF-295): > 10 µM (inactive)
- GI50 (SF-539): > 10 µM (inactive)
- GI50 (SK-MEL-28): > 10 µM (inactive)
- GI50 (SK-MEL-2): > 10 µM (inactive)
- GI50 (SK-MEL-5): > 10 µM (inactive)
- GI50 (SK-OV-3): > 10 µM (inactive)
- GI50 (SN12C): > 10 µM (inactive)
- GI50 (SNB-19): > 10 µM (inactive)
- GI50 (SNB-75): 6.62 µM (inactive)
- GI50 (SW-620): > 10 µM (inactive)
- GI50 (T47D): > 10 µM (inactive)
- GI50 (TK-10): > 10 µM (inactive)
- GI50 (U-251): > 10 µM (inactive)
- GI50 (UACC-257): > 10 µM (inactive)
- GI50 (UACC-62): > 10 µM (inactive)

Compound: CCSc1cc(C(=O)OC)c2n(c1=O)CCCC2
- GI50 (786-0): > 100 µM (inactive)
- GI50 (A498): > 100 µM (inactive)
- GI50 (A549): > 100 µM (inactive)
- GI50 (ACHN): > 100 µM (inactive)
- GI50 (BT-549): > 100 µM (inactive)
- GI50 (CAKI-1): > 100 µM (inactive)
- GI50 (CCRF-CEM): > 100 µM (inactive)
- GI50 (COLO 205): > 100 µM (inactive)
- GI50 (DU-145): > 100 µM (inactive)
- GI50 (EKVX): > 100 µM (inactive)
- GI50 (HCT-116): > 100 µM (inactive)
- GI50 (HCT-15): > 100 µM
- GI50 (HL-60): > 100 µM (inactive)
- GI50 (HOP-62): > 100 µM (inactive)
- GI50 (HT-29): > 100 µM (inactive)
- GI50 (Hs-578T): > 100 µM (inactive)
- GI50 (IGROV-1): > 100 µM (inactive)
- GI50 (KM12): > 100 µM (inactive)
- GI50 (LOX IMVI): > 100 µM (inactive)
- GI50 (M14): > 100 µM (inactive)
- GI50 (MCF7): > 100 µM (inactive)
- GI50 (MDA-MB-231): > 100 µM (inactive)
- GI50 (MDA-MB-435): > 100 µM (inactive)
- GI50 (MDA-N): > 100 µM (inactive)
- GI50 (MOLT-4): > 100 µM (inactive)
- GI50 (Malme-3M): > 100 µM (inactive)
- GI50 (NCI-H226): > 100 µM (inactive)
- GI50 (NCI-H23): > 100 µM (inactive)
- GI50 (NCI-H522): > 100 µM (inactive)
- GI50 (NCI/ADR-RES): > 100 µM (inactive)
- GI50 (OVCAR-4): > 100 µM (inactive)
- GI50 (OVCAR-5): > 100 µM (inactive)
- GI50 (OVCAR-8): > 100 µM (inactive)
- GI50 (PC-3): > 100 µM (inactive)
- GI50 (RXF 393): > 100 µM (inactive)
- GI50 (SF-268): > 100 µM (inactive)
- GI50 (SF-295): > 100 µM (inactive)
- GI50 (SF-539): > 100 µM (inactive)
- GI50 (SK-MEL-28): > 100 µM (inactive)
- GI50 (SK-MEL-2): > 100 µM (inactive)
- GI50 (SK-MEL-5): > 100 µM (inactive)
- GI50 (SK-OV-3): > 100 µM (inactive)
- GI50 (SN12C): > 100 µM (inactive)
- GI50 (SNB-19): > 100 µM (inactive)
- GI50 (SNB-75): > 100 µM (inactive)
- GI50 (SW-620): > 100 µM (inactive)
- GI50 (T47D): > 100 µM (inactive)
- GI50 (TK-10): > 100 µM (inactive)
- GI50 (U-251): > 100 µM (inactive)
- GI50 (UACC-257): > 100 µM (inactive)
- GI50 (UACC-62): > 100 µM (inactive)
- GI50 (UO-31): > 100 µM (inactive)

Compound: CCC(=O)NCCc1c2c3c(ccnc3c3ncsc13)-c1ccccc1N2 [KUANONIAMINE C]
- GI50 (786-0): 0.791 µM (active)
- GI50 (A498): 0.989 µM (active)
- GI50 (A549): 0.771 µM (active)
- GI50 (ACHN): 0.583 µM (active)
- GI50 (BT-549): 2.69 µM (inactive)
- GI50 (CAKI-1): 5.74 µM (inactive)
- GI50 (CCRF-CEM): 2.86 µM (inactive)
- GI50 (COLO 205): 1.45 µM (inactive)
- GI50 (DU-145): 0.603 µM (active)
- GI50 (EKVX): 5.22 µM (inactive)
- GI50 (HCC 2998): 0.692 µM (active)
- GI50 (HCT-116): 0.582 µM (active)
- GI50 (HCT-15): 2.51 µM
- GI50 (HL-60): 0.845 µM (active)
- GI50 (HOP-62): 2.94 µM (inactive)
- GI50 (HT-29): 0.541 µM (active)
- GI50 (Hs-578T): 0.368 µM (active)
- GI50 (IGROV-1): 2.81 µM (inactive)
- GI50 (K562): 1.53 µM (inactive)
- GI50 (KM12): 2.33 µM (inactive)
- GI50 (LOX IMVI): 1.05 µM (active)
- GI50 (M14): 2.73 µM (inactive)
- GI50 (MCF7): 0.0223 µM (active)
- GI50 (MDA-MB-231): 4.02 µM (inactive)
- GI50 (MDA-MB-435): 2.26 µM (inactive)
- GI50 (MDA-N): 0.324 µM (active)
- GI50 (MOLT-4): 1.4 µM (inactive)
- GI50 (Malme-3M): 2.62 µM (inactive)
- GI50 (NCI-H226): 0.91 µM (active)
- GI50 (NCI-H23): 1.92 µM (inactive)
- GI50 (NCI-H460): 1.16 µM (inactive)
- GI50 (NCI-H522): 2.62 µM (inactive)
- GI50 (NCI/ADR-RES): 4.99 µM (inactive)
- GI50 (OVCAR-3): 10.5 µM (inactive)
- GI50 (OVCAR-4): 30.4 µM (inactive)
- GI50 (OVCAR-5): 8.17 µM (inactive)
- GI50 (OVCAR-8): 3.28 µM (inactive)
- GI50 (PC-3): 1.41 µM (inactive)
- GI50 (RPMI-8226): 0.401 µM (active)
- GI50 (RXF 393): 4.16 µM (inactive)
- GI50 (SF-268): 1.45 µM (inactive)
- GI50 (SF-295): 1.12 µM (active)
- GI50 (SF-539): 1.06 µM (active)
- GI50 (SK-MEL-28): 2.56 µM (inactive)
- GI50 (SK-MEL-2): 43.2 µM (inactive)
- GI50 (SK-MEL-5): 2.72 µM (inactive)
- GI50 (SK-OV-3): 12.2 µM (inactive)
- GI50 (SN12C): 0.724 µM (active)
- GI50 (SNB-19): 4.36 µM (inactive)
- GI50 (SNB-75): 6.89 µM (inactive)
- GI50 (SW-620): 1.18 µM (inactive)
- GI50 (T47D): 6.75 µM (inactive)
- GI50 (TK-10): 6.32 µM (inactive)
- GI50 (U-251): 1.41 µM (inactive)
- GI50 (UACC-257): 6 µM (inactive)
- GI50 (UACC-62): 1.63 µM (inactive)
- GI50 (UO-31): 0.53 µM (active)
